“And” between values parts separate entries of the source, which are not always exact repeats. Equal entries are not always repeated.
Experiments:
DC-SIGN S-ECD = biological target: T1, DC-SIGN S-ECD (Homo sapiens, UniProt Q9NNX6); assay: SPR direct interaction assay on oriented DC-SIGN S-ECD surface; type: binding; settings: for Kd: SPR direct interaction, oriented tetrameric DC-SIGN ECD surface, apparent Kd, read-out: Kdapp
T1 construct: The ECD of DC-SIGN (residues 66–404) was overexpressed and purified as previously described; made in house
T1 sequence (Q9NNX6 66-404): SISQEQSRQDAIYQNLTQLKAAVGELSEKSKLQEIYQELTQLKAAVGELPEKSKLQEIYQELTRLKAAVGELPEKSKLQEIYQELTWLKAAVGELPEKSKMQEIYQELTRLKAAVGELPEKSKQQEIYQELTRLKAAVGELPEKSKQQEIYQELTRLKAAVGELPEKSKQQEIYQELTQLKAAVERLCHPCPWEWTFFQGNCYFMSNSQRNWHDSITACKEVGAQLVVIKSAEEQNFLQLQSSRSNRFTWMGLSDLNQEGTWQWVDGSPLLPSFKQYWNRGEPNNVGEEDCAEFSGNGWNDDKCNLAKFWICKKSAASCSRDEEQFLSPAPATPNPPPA
Description: The affinity of the clusters for the extracellular domain (ECD) of the DC-SIGN receptor (DC-SIGN ECD) was estimated via surface plasmon resonance (SPR) assays (Tabarani et al., [2009]). The apparent Kd was calculated in direct interaction mode using a surface functionalized in an oriented manner with DC-SIGN ECD. In this assay, tetrameric DC-SIGN ECD is attached to the surface of the sensor chip via the N-terminus of its neck oligomerization domain, thus presenting its four carbohydrate recognition domains toward the solvent, realistically mimicking the presentation of the receptor on cell surface (Porkolab et al., [2019]). For some of the low affinity ligands, in the mM range, it was not possible to determine their affinity with this assay, and therefore a competition experiment was performed providing IC50 values (Timpano et al., [2008]) (Figure 3A). […] When comparing equivalent clusters, the α1,2-di-mannoside (B series) bound with the highest affinity (Figure 3A). […] A potential explanation for this effect could be that the spacing of clusters is more important for the larger tri-mannosides.
The direct interaction experiments were executed on a T200 Biacore with a CM3 series S sensor chip. Contrary to the competition assay described above, in this test, DC-SIGN ECD used harbors a StreptagII in its N-terminus (DC-SIGN S-ECD) to allow its capture and functionalization onto the surface in an oriented manner. Flow cells were functionalized as previously described (Porkolab et al., [2019]). Briefly, after EDC/NHS activation, flow cells were functionalized with streptactin protein in a first step. Flow cell 1 was used as control, while other flow cells were, in a second round of activation, functionalized with 100 μg/mL of a DC-SIGN S-ECD up to a final density ranging between 2,500 and 3,000 RU, via tag specific capture and linkage by amine coupling chemistry simultaneously. The compounds were injected in running buffer of 25 mM Tris pH 8, 150 mM NaCl, 4 mM CaCl2, 0.05% Tween 20 onto the surface at increasing concentrations with a flow rate of 30 μL/min. The ligand titration led to the determination of an apparent Kd value. The data was analyzed in BIAcore BIAevaluation software for direct interaction 1:1 calculation assuming that the Kd will reflect the affinity of the ligands (glycoclusters) for the DC-SIGN oriented surface used as a whole.

moDCs = assay: Internalization of biotinylated hexavalent clusters by moDCs (flow cytometry); type: cell-based, human
Description: For the internalization, the moDCs were incubated with clusters b6, c6, d6, and e6 for 1 h at 4°C, where after unbound ligands were washed away with ice-cold medium. Warm medium was added to the moDCs, and samples were taken at the indicated time points and put on ice. Upon staining the moDCs with fluorophore-conjugated streptavidin, we could measure the signal loss of the membrane via flow cytometry. To exclude ligand-receptor dissociation before internalization, the moDCs were fixed under gentle conditions, hereby inhibiting receptor-mediated endocytosis. On fixed moDCs the clusters remained at the surface, as no signal loss could be detected (Supplementary Figure 1D). […] The di-mannoside clusters (b6, c6, and d6) were internalized relatively fast, with a 50% uptake within 5 min (Figure 5B). The tri-mannoside cluster e6 however remained longer at the membrane surface and only a 25% uptake was seen after 30 min. Similar results were seen using a pH-sensitive fluorophore. In acidic environments, such as the endosomes and lysosomes, the fluorescence of this dye increases. Pre-complexed clusters mirrored the accelerated uptake of the di-mannoside clusters over the e6 cluster (Supplementary Figure 1E). Although the DC-SIGN mediated uptake mechanism is known (Cambi et al., [2009]), the initiation trigger for endocytosis upon DC-SIGN-ligand binding remains unclear. Recognition of the di-mannoside clusters could induce signaling leading to accelerated uptake, whereas the tri-mannoside cluster could trigger a different signaling pathway. Nonetheless, the clusters harboring the smaller mannosides are preferred. Although the binding affinity of the clusters ranged from 0.9 to 6.6 μM, the di-mannosides induce more rapid DC-SIGN internalization over the tri-mannosides, and can thus increase intracellular peptide concentrations more efficiently for further antigen processing and presentation.
Immature day 5 moDCs were harvested and washed with cold HBSS (Thermo Fischer), after which half of the moDCs were gently fixed for 20 min at RT with 1% PFA in PBS. Afterwards, 20 μM of the different biotinylated mannose-clusters in cold HBSS were added. The moDCs were incubated for 1 h on ice, and washed in cold HBSS. Subsequently, warm HBSS was added to the cells, and cells were incubated at 37°C in a shaking heating block. At the indicated time points, a sample of the cells was taken and put on ice. After the last time point, the cells were stained with Streptavidin-Alexa647 (Thermo Fisher), measured using flow cytometry (CyAn™ ADP with Summit™ Software), and further analyzed using FlowJo v10. The same procedure was used for internalization with pHrodo^TM Red Avidin (Thermo Fischer). The different biotinylated mannose-clusters were however incubated with pHrodo-Avidin (ratio 2:1) for 15 min at 37°C, prior to moDC exposure. The fluorescence upon internalization was measured using flow cytometry (BD LSRFortessa™ X-20 with FACSDiva Software), and further analyzed using FlowJo v10.

| Compound | Kd (DC-SIGN S-ECD) | further results |
| --- | --- | --- |
| CC(=O)N[C@@H](CCCCn1cc(CO[C@H]2O[C@H](CO)[C@@H](O)[C@H](O)[C@@H]2O[C@H]2O[C@H](CO)[C@@H](O)[C@H](O)[C@@H]2O)nn1)C(=O)N[C@@H](CCCCn1cc(CO[C@H]2O[C@H](CO)[C@@H](O)[C@H](O)[C@@H]2O[C@H]2O[C@H](CO)[C@@H](O)[C@H](O)[C@@H]2O)nn1)C(=O)N[C@@H](CCCCn1cc(CO[C@H]2O[C@H](CO)[C@@H](O)[C@H](O)[C@@H]2O[C@H]2O[C@H](CO)[C@@H](O)[C@H](O)[C@@H]2O)nn1)C(=O)N[C@@H](CCCCn1cc(CO[C@H]2O[C@H](CO)[C@@H](O)[C@H](O)[C@@H]2O[C@H]2O[C@H](CO)[C@@H](O)[C@H](O)[C@@H]2O)nn1)C(=O)N[C@@H](CCCCn1cc(CO[C@H]2O[C@H](CO)[C@@H](O)[C@H](O)[C@@H]2O[C@H]2O[C@H](CO)[C@@H](O)[C@H](O)[C@@H]2O)nn1)C(=O)N[C@@H](CCCCn1cc(CO[C@H]2O[C@H](CO)[C@@H](O)[C@H](O)[C@@H]2O[C@H]2O[C@H](CO)[C@@H](O)[C@H](O)[C@@H]2O)nn1)C(=O)NCC(=O)N[C@@H](CCCCN)C(N)=O [B6] | 950 nM and 946 nM and 900 nM | internalization by moDCs (loss of surface streptavidin signal) (moDCs; 20 μM cluster, live moDCs): rapidly internalized; internalization by moDCs (pHrodo-avidin fluorescence increase) (moDCs; clusters pre-complexed with pH-sensitive dye): internalized rapidly; uptake by immature moDCs (moDCs; within 5 min at 37°C, 20 μM cluster): 50% |
| CC(=O)N[C@@H](CCCCn1cc(CO[C@H]2O[C@H](CO[C@H]3O[C@H](CO)[C@@H](O)[C@H](O)[C@@H]3O)[C@@H](O)[C@H](O)[C@@H]2O)nn1)C(=O)NCC(=O)N[C@@H](CCCCn1cc(CO[C@H]2O[C@H](CO[C@H]3O[C@H](CO)[C@@H](O)[C@H](O)[C@@H]3O)[C@@H](O)[C@H](O)[C@@H]2O)nn1)C(=O)NCC(=O)N[C@@H](CCCCn1cc(CO[C@H]2O[C@H](CO[C@H]3O[C@H](CO)[C@@H](O)[C@H](O)[C@@H]3O)[C@@H](O)[C@H](O)[C@@H]2O)nn1)C(=O)NCC(=O)N[C@@H](CCCCN)C(N)=O [D3] | 48700 ± 2570 nM | – |
| CC(=O)N[C@@H](CCCCn1cc(CO[C@H]2O[C@H](CO)[C@@H](O)[C@H](O)[C@@H]2O[C@H]2O[C@H](CO)[C@@H](O)[C@H](O)[C@@H]2O)nn1)C(=O)NCC(=O)N[C@@H](CCCCn1cc(CO[C@H]2O[C@H](CO)[C@@H](O)[C@H](O)[C@@H]2O[C@H]2O[C@H](CO)[C@@H](O)[C@H](O)[C@@H]2O)nn1)C(=O)NCC(=O)N[C@@H](CCCCn1cc(CO[C@H]2O[C@H](CO)[C@@H](O)[C@H](O)[C@@H]2O[C@H]2O[C@H](CO)[C@@H](O)[C@H](O)[C@@H]2O)nn1)C(=O)NCC(=O)N[C@@H](CCCCN)C(N)=O [B3] | 19500 ± 500 nM | – |
| CC(=O)N[C@@H](CCCCn1cc(CO[C@H]2O[C@H](CO[C@H]3O[C@H](CO)[C@@H](O)[C@H](O)[C@@H]3O)[C@@H](O)[C@H](O[C@H]3O[C@H](CO)[C@@H](O)[C@H](O)[C@@H]3O)[C@@H]2O)nn1)C(=O)NCC(=O)N[C@@H](CCCCn1cc(CO[C@H]2O[C@H](CO[C@H]3O[C@H](CO)[C@@H](O)[C@H](O)[C@@H]3O)[C@@H](O)[C@H](O[C@H]3O[C@H](CO)[C@@H](O)[C@H](O)[C@@H]3O)[C@@H]2O)nn1)C(=O)NCC(=O)N[C@@H](CCCCn1cc(CO[C@H]2O[C@H](CO[C@H]3O[C@H](CO)[C@@H](O)[C@H](O)[C@@H]3O)[C@@H](O)[C@H](O[C@H]3O[C@H](CO)[C@@H](O)[C@H](O)[C@@H]3O)[C@@H]2O)nn1)C(=O)NCC(=O)N[C@@H](CCCCN)C(N)=O [E3] | 2440 nM | – |
| CC[C@H](NC(=O)[C@H](CC(=O)O)NC(=O)[C@H](CC(C)C)NC(=O)[C@H](CCCNC(=N)N)NC(=O)[C@H](CCC(N)=O)NC(=O)[C@H](C)NC(=O)[C@H](CCC(=O)O)NC(=O)[C@@H](NC(=O)[C@H](Cc1c[nH]c2ccccc12)NC(=O)[C@H](CCC(=O)O)NC(=O)[C@@H]1CCCN1C(=O)[C@H](Cc1ccc(O)cc1)NC(=O)[C@H](CC(C)C)NC(=O)[C@H](CCC(N)=O)NC(=O)[C@H](CCCNC(=N)N)NC(=O)[C@H](CC(N)=O)NC(=O)[C@H](C)NC(=O)[C@@H](NC(=O)[C@@H](NC(=O)[C@@H]1CCCN1C(=O)CNC(=O)[C@@H]1CCCN1C(=O)[C@H](CCC(=O)O)NC(=O)[C@H](CC(C)C)NC(=O)[C@H](Cc1ccc(O)cc1)NC(=O)[C@@H](NC(=O)[C@H](Cc1c[nH]cn1)NC(=O)[C@@H](NC(=O)[C@@H](NC(=O)[C@H](CCCCn1cc(CCC(=O)NCCCC[C@H](NC(=O)CNC(=O)[C@H](CCCCn2cc(CO[C@H]3O[C@H](CO)[C@@H](O)[C@H](O)[C@@H]3O[C@H]3O[C@H](CO)[C@@H](O)[C@H](O)[C@@H]3O)nn2)NC(=O)[C@H](CCCCn2cc(CO[C@H]3O[C@H](CO)[C@@H](O)[C@H](O)[C@@H]3O[C@H]3O[C@H](CO)[C@@H](O)[C@H](O)[C@@H]3O)nn2)NC(=O)[C@H](CCCCn2cc(CO[C@H]3O[C@H](CO)[C@@H](O)[C@H](O)[C@@H]3O[C@H]3O[C@H](CO)[C@@H](O)[C@H](O)[C@@H]3O)nn2)NC(=O)[C@H](CCCCn2cc(CO[C@H]3O[C@H](CO)[C@@H](O)[C@H](O)[C@@H]3O[C@H]3O[C@H](CO)[C@@H](O)[C@H](O)[C@@H]3O)nn2)NC(=O)[C@H](CCCCn2cc(CO[C@H]3O[C@H](CO)[C@@H](O)[C@H](O)[C@@H]3O[C@H]3O[C@H](CO)[C@@H](O)[C@H](O)[C@@H]3O)nn2)NC(=O)[C@H](CCCCn2cc(CO[C@H]3O[C@H](CO)[C@@H](O)[C@H](O)[C@@H]3O[C@H]3O[C@H](CO)[C@@H](O)[C@H](O)[C@@H]3O)nn2)NC(C)=O)C(N)=O)nn1)NC(C)=O)C(C)C)[C@@H](C)O)[C@@H](C)O)C(C)C)[C@@H](C)O)[C@@H](C)O)C(=O)N[C@@H](Cc1c[nH]c2ccccc12)C(=O)N[C@@H](CCCNC(=N)N)C(=O)NCC(=O)N[C@@H](CCCCN)C(N)=O [B6-gp100] | – | decrease of DC-SIGN affinity on conjugation to gp100 or gp100-TLR7L (factor) (DC-SIGN S-ECD; Kd-app of conjugate vs unconjugated cluster): about 10 |

Source: publication PMC6787163, “Systematic Dual Targeting of Dendritic Cell C-Type Lectin Receptor DC-SIGN and TLR7 Using a Trifunctional Mannosylated Antigen” (Frontiers in Chemistry, 2019)
